{
  "source": "patent US9877929B2",
  "about": "“Topical vitamin D and ubiquinol oral supplement compositions” (Premier Dental Products Company, priority 2011, dated 2018)",
  "origin": "cited, not measured here",
  "key": {"[1]": {"conditions": "stable UBIQUINOL supplement"}},
  "data": [
    {"smiles": "COc1c(O)c(C)c(C/C=C(\\C)CC/C=C(\\C)CC/C=C(\\C)CC/C=C(\\C)CC/C=C(\\C)CC/C=C(\\C)CC/C=C(\\C)CC/C=C(\\C)CC/C=C(\\C)CCC=C(C)C)c(O)c1OC", "note": "[UBIQUINOL]", "values": [
      {"measurement": "water solubility", "setting": "[1]", "result": "less than 0.1 mg/ml"},
      {"measurement": "time required to reach peak concentration", "setting": "absorption from the gastrointestinal tract", "result": "approximately 6 hours"},
      {"measurement": "time to steady-state concentrations", "setting": "oral treatment", "result": "two"},
      {"measurement": "peak blood values", "setting": "orally, 150 mg per day of UBIQUINOL in a softgel, within 28 days", "result": 3.84, "unit": "µg/mL"}
    ]}
  ]
}
